These results are taken from patent US7504517B2, “Kv1.5 potassium channel inhibitors” (Wyeth, priority 2006, dated 2009).

Where a name gives a salt, the structure may show the parent alone.

Broadly, the inhibition is the percentage by which the read-out fell short of the control. A word on the IC50: it is the point on the concentration scale where inhibition reaches its midpoint.

The target in one data set is T1, Kv1.5 (Homo sapiens, UniProt P22460).
T1 construct: expressed in transfected cells; host or cells: HEK or LTK- cells
T1 sequence (P22460 whole entry): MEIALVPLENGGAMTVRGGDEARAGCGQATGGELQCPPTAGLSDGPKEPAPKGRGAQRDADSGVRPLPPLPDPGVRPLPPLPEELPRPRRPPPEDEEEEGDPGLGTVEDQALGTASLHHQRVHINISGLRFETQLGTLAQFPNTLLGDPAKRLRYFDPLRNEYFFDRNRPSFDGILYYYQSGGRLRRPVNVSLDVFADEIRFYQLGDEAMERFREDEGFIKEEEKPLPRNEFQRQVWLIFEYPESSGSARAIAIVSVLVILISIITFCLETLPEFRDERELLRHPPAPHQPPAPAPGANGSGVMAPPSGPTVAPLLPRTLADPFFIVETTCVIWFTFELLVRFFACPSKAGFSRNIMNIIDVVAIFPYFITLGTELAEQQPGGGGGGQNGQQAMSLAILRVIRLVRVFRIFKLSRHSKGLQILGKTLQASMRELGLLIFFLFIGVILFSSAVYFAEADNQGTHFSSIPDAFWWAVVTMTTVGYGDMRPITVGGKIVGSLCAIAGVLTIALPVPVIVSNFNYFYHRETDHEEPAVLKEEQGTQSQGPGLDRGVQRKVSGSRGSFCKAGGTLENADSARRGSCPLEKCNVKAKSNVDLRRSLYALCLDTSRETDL
The data set can be described thus: Kv1.5 Patch Clamp EP. The format is cell-based. Particulars: 1.0 μM, single point; whole cell patch clamp, Kv1.5 stably over expressed in HEK or LTK- cells. The procedure:
The external solution is standard Tyrodes solution. […] Inhibition was measured at the end of the 1 second pulses and expressed relative to controls. Initial Kv1.5 inhibition is estimated by single point determinations done at 1 μM.
On the technique in general: The patch-clamp technique gives a direct electrical read-out from membranes.

The test system of another data set is L-type calcium channels. The data set can be described thus: FLIPR L-Type Calcium Channel Assay. The following applies: HL-1 cells expressing endogenous L-type calcium channels; calcium influx after 20 mM KCl; read-out: L-type Ca^2+ IC50. The class given is cell-based, murine. As to the method:
50 μL per well test compounds are added to the plates and further incubated for 15 min. in a 5% CO2 37° C. incubator. All final solutions contain the anion exchange inhibitor, probenecid (2.5 mM). The 96-well plates are then placed in the center position of the FLIPR 1 (Fluorometric Imaging Plate Reader, Molecular Devices Corporation). Cell monolayers in each well are simultaneously illuminated at 488 nm with an Argon ion laser, and fluorescence emission is monitored using a 510-570 nm bandpass filter and a cooled CCD camera. To depolarize the plasma membrane and activate L-type calcium channels, 50 μL per well of 20 mM KCl (final concentration) are dispensed simultaneously to all 96 wells using the FLIPR's automatic 96-well pipettor. Fluorescence measurements are captured for 5 min. following KCl addition. Calcium influx, expressed as % control, is calculated for each concentration of test compound and concentration-response curves and IC50 values are generated using GraphPad Prism 4.0.

Another data set deals with HERG (Homo sapiens, UniProt Q12809). The data set can be described thus: HERG Patch Clamp EP. Particulars: human, HEK cells stably overexpressing HERG.
HERG, sequence (Q12809 whole entry): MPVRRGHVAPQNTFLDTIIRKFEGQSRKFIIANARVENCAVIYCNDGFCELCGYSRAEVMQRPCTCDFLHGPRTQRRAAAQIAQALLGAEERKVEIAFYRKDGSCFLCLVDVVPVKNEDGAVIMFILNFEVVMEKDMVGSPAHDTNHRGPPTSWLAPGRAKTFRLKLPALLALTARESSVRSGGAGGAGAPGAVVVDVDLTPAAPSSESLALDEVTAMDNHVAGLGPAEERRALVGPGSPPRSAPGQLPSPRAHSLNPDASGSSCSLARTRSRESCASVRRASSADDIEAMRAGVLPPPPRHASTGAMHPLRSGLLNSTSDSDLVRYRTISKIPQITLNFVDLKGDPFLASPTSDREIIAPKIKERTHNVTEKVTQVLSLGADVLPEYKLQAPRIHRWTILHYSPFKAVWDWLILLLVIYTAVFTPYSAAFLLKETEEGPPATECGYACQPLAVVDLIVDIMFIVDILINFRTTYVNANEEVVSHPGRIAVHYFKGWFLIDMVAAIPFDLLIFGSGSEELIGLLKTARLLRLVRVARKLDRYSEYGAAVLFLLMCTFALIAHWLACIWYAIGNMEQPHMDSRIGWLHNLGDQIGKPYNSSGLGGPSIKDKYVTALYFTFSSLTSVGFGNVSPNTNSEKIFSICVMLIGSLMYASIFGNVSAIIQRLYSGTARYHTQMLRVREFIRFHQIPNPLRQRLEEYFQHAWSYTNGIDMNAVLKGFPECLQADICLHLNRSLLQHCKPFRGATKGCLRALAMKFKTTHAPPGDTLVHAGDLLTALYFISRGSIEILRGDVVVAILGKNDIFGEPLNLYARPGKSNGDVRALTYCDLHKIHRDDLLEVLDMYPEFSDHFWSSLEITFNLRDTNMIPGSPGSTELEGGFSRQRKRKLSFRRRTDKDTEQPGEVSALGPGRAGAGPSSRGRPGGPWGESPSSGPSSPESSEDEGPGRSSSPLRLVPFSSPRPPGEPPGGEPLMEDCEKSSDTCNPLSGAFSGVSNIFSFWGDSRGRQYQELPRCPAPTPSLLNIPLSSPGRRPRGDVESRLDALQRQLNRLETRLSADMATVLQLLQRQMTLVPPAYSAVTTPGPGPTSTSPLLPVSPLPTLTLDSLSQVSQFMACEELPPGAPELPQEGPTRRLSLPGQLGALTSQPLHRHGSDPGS

Procedure for HERG: HERG currents are recorded by the whole cell mode of patch clamp electrophysiology as described by Hamill et al.^3 HERG is stably over expressed in HEK cells. Microelectrodes are pulled from borosilicate glass (TW150) and heat polished (tip resistance, 1.5 to 3 megaohms). The external solution is standard Tyrodes solution. The internal (microelectrode) solution contained: 110 mM KCl, 5 mM K2ATP, 5 mM K4BAPTA, 1 mM MgCl2 and 10 mM HEPES, adjusted to pH 7.2 with KOH. […] Compounds are prepared as 10-20 mM DMSO stocks and diluted to appropriate test concentrations. […] Inhibition of HERG is measured at the peak of the tail currents and expressed relative to controls. Initial HERG activity is estimated by single point determinations run at 10 μM. Concentration response curves are generated for appropriate compounds utilizing at least four concentrations and an n=3. Curve fitting and IC50 estimating are done using Graphpad software (Ver. 4). • 1.

`COc1ccc(CCN2C(=O)N(N)CC2c2ccc(C)c(C)c2)cc1` (stereo not drawn) [Compound 1, 1-Amino-3-[2-(4-methoxyphenyl)ethyl]-4-(3,4-dimethylphenyl)-2-imidazolidinone] displayed an inhibition at 1 µM against Kv1.5 of 59%. The IC50 in the data set with L-type calcium channels was found to be 5.5 µM.
`COc1ccc(CCCN2C(=O)N(N)CC2c2ccc(C3CC3)cc2)cc1` (stereo not drawn) [Compound 4, 1-Amino-4-(4-cyclopropylphenyl)-3-[3-(4-methoxyphenyl)propyl]-2-imidazolidinone] returned an inhibition at 1 µM against Kv1.5 of 72%. In the data set on L-type calcium channels, the IC50 is 4.5 µM. The molecule also showed an inhibition at 10 µM against HERG of 53%.
In the case of `COc1ccc(CCN2C(=O)N(N)CC2c2ccc(C3CC3)cc2)cc1` (stereo not drawn) [Compound 6, 1-Amino-3-[2-(4-methoxyphenyl)ethyl]-4-(4-cyclopropylphenyl)-2-imidazolidinone 4-methylbenzenesulfonic acid salt], the inhibition at 1 µM on Kv1.5 amounted to 53%. The IC50 in the data set with L-type calcium channels was determined as 12 µM. The molecule also came in with an inhibition at 10 µM against HERG of 29%.
In the case of `COc1ccc(CCN2C(=O)N(NS(C)(=O)=O)CC2c2ccc(Cl)cc2)cc1` (stereo not drawn) [Compound 21, 1-(Methylsulfonylamino)-3-[2-(4-methoxyphenyl)ethyl]-4-(4-chlorophenyl)-2-imidazolidinone], at 1 µM the inhibition against Kv1.5 was 72%. In the data set on L-type calcium channels, the IC50 came to 26 µM.
On the same counts, the results for `CCCCS(=O)(=O)NN1CC(c2ccc(C3CC3)cc2)N(CCc2ccc(OC)cc2)C1=O` (stereo not drawn) [Compound 31, 1-(Butylsulfonylamino)-3-[(4-methoxyphenyl)ethyl]-4-(4-cyclopropylphenyl)-2-imidazolidinone] are 84% and 4 µM.
On the same counts, the results for `CCCCS(=O)(=O)NN1CC(c2ccc(C(C)(C)C)cc2)N(CCc2ccc(OC)cc2)C1=O` (stereo not drawn) [Compound 32, 1-(Butylsulfonylamino)-3-[(4-methoxyphenyl)-ethyl]-4-[4-(tert-butyl)phenyl]-2-imidazolidinone] are 69% and 6.7 µM.
For `COc1ccc(CCN2C(=O)N(NS(=O)(=O)CCl)CC2c2ccc(C(C)(C)C)cc2)cc1` (stereo not drawn) [Compound 39, 1-(Chloromethylsulfonylamino)-3-[2-(4-methoxyphenyl)ethyl]-4-(4-tert-butyl-phenyl)-2-imidazolidinone], in that order: 81% and 12 µM.
With `COc1ccc(CCN2C(=O)N(NS(=O)(=O)CC(=O)N(C)C)CC2c2ccc(OC)cc2)cc1` (stereo not drawn) [Compound 55, 1-[[2-(Dimethylamino)-2-oxoethyl]sulfonylamino]-3-[2-(4-methoxyphenyl)-ethyl]-4-(4-methoxyphenyl)-2-imidazolidinone], the inhibition at 1 µM at Kv1.5 is 29%. In the data set on L-type calcium channels, the IC50 worked out at 29 µM.
For `COc1ccc(CCN2C(=O)N(NC(=O)C3CC3)CC2c2ccc(C)c(C)c2)cc1` (stereo not drawn) [Compound 72, Cyclopropanecarboxylic acid N-{3-[2-(4-methoxyphenyl)ethyl]-4-(3,4-dimethylphenyl)-2-oxo-imidazolidin-1-yl}-amide], in that order: 81% and 18 µM.
`COc1ccc(CCN2C(=O)N(NC(=O)c3ccco3)CC2c2ccc(C)c(C)c2)cc1` (stereo not drawn) [Compound 74, 1-(2-Furanoylamino)-3-[2-(4-Methoxyphenyl)ethyl]-4-(3,4-dimethylphenyl)-2-imidazolidinone]: the inhibition at 1 µM at Kv1.5 worked out at 85%. Moreover, the IC50 with L-type calcium channels is 25 µM.
For `COc1ccc(CCN2C(=O)N(NC(=O)c3ccno3)CC2c2ccc(C)c(C)c2)cc1` (stereo not drawn) [Compound 78, 1-(Isoxazol-5-ylcarbonylamino)-3-[2-(4-methoxyphenyl)-ethyl]-4-(3,4-dimethylphenyl)-2-imidazolidinone], in that order: 75% and 11 µM.
On the same counts, the results for `COc1ccc(CCN2C(=O)N(NC(=O)CN(C)Cc3ccccc3)CC2c2ccc(C(C)(C)C)cc2)cc1` (stereo not drawn) [Compound 81, 2-(Benzylmethylamino)-N-{4-[4-(tert-butyl)phenyl]-3-[2-(4-methoxyphenyl)-ethyl]-2-oxo-imidazolidin-1-yl}-acetamide] are 78% and 4 µM.
Consider `COc1ccc(CCN2C(=O)N(NCc3ccccc3)CC2c2ccc(C(C)(C)C)cc2)cc1` (stereo not drawn) [Compound 87, 1-Benzylamino-3-[2-(4-methoxyphenyl)ethyl]-4-[4-(tert-butyl)phenyl]-2-imidazolidinone], for which at 1 µM the inhibition on Kv1.5 was 57%. In addition, the IC50 with L-type calcium channels turned out to be 6 µM.
On the same counts, the results for `COc1ccc(CCN2C(=O)N(NCc3ccc(N(C)C)cc3)CC2c2ccc(C(C)(C)C)cc2)cc1` (stereo not drawn) [Compound 91, 1-[(4-(Dimethylamino)phenylmethyl)amino]-3-[2-(4-methoxyphenyl)ethyl]-4-[4-(tert-butyl)phenyl]-2-imidazolidinone] are 85% and 4 µM.
On the same counts, the results for `COc1ccc(CCN2C(=O)N(NCCc3ccccc3)CC2c2ccc(C)c(C)c2)cc1` (stereo not drawn) [Compound 97, 1-[(Phenylethyl)amino]-3-[2-(4-methoxyphenyl)ethyl]-4-(3,4-dimethylphenyl)-2-imidazolidinone] are 81% and 3.5 µM.
On the same counts, the results for `COc1ccc(CCN2C(=O)N(NCc3ccc(-n4ccnc4)cc3)CC2c2ccc(C)c(C)c2)cc1` (stereo not drawn) [Compound 98, 1-[(4-(1H-imidazol-1-yl)phenylmethyl)amino]-3-[2-(4-methoxyphenyl)ethyl]-4-(3,4-dimethylphenyl)-2-imidazolidinone] are 83% and 4.8 µM.
As for `CCC1(CC)CN(NS(C)(=O)=O)C(=O)N1CCc1ccc(OC)cc1` [Compound 111, N-{4,4-diethyl-3-[2-(4-methoxyphenyl)ethyl]-2-oxoimidazolidin-1-yl}methanesulfonamide], on Kv1.5, the inhibition at 1 µM is 9%. The molecule also had an inhibition at 10 µM on HERG of 33%.
For `CCCCC1CN(NS(C)(=O)=O)C(=O)N1CCc1ccc(OC)cc1` (stereo not drawn) [Compound 128, N-{4-butyl-3-[2-(4-methoxyphenyl)ethyl]-2-oxoimidazolidin-1-yl}methanesulfonamide], in that order: 8% and 19%.
Molecule `COC(=O)c1ccc(NN2CC(c3ccc(C)c(C)c3)N(CCc3ccc(OC)cc3)C2=O)c(N)c1` (stereo not drawn) [Compound 135, methyl 3-amino-4-({4-(3,4-dimethylphenyl)-3-[2-(4-methoxyphenyl)ethyl]-2-oxoimidazolidin-1-yl}amino)benzoate] had an inhibition at 1 µM against Kv1.5 of 53%. For the same molecule, the IC50 in the data set on L-type calcium channels worked out at 8 µM.
With `COc1ccc(C2CN(NS(C)(=O)=O)C(=O)N2CCc2ccc(OC(F)F)cc2)cc1` (stereo not drawn) [Compound 142, N-[3-{2-[4-(difluoromethoxy)phenyl]ethyl}-4-(4-methoxyphenyl)-2-oxoimidazolidin-1-yl]methanesulfonamide], on Kv1.5, the inhibition at 1 µM was 40%. Besides, the inhibition at 10 µM against HERG turned out to be 91%.
For `COc1ccc(CCN2C(=O)N(NS(C)(=O)=O)CC2C2CCCCC2)cc1` (stereo not drawn) [Compound 145, N-{4-cyclohexyl-3-[2-(4-methoxyphenyl)ethyl]-2-oxoimidazolidin-1-yl}methanesulfonamide], in that order: 16% and 11%.
For the molecule `COc1ccc(CCN2C(=O)N(NS(=O)(=O)N3CCN(C)CC3)CC2c2ccc(C)c(C)c2)cc1` (stereo not drawn) [Compound 166, N-{4-(3,4-dimethylphenyl)-3-[2-(4-methoxyphenyl)ethyl]-2-oxoimidazolidin-1-yl}-4-methylpiperazine-1-sulfonamide], on Kv1.5, at 1 µM the inhibition was 41%.
Same read-out and setting: to `COc1ccc(CCN2C(=O)N(NS(N)(=O)=O)CC2c2ccc(OC)cc2)cc1` (stereo not drawn) [Compound 167, N-{4-(4-methoxyphenyl)-3-[2-(4-methoxyphenyl)ethyl]-2-oxoimidazolidin-1-yl}sulfamide] belongs 36%; to `CC(C)(C)c1ccc(C2CN(NS(C)(=O)=O)C(=O)N2CCc2ccc(OCCN3CCOCC3)cc2)cc1` (stereo not drawn) [Compound 169, N-[4-(4-tert-butylphenyl)-3-{2-[4-(2-morpholin-4-ylethoxy)phenyl]ethyl}-2-oxoimidazolidin-1-yl]methanesulfonamide], 16%.
In the case of `COc1ccc(CCN2C(=O)N(NS(=O)(=O)CC(=O)O)CC2c2ccc(C3CC3)cc2)cc1` (stereo not drawn) [Compound 174, [[[4-(4-cyclopropylphenyl)-3-[2-(4-methoxyphenyl)ethyl]-2-oxo-imidazolidin-1-yl]amino]sulfonyl]acetic acid], on Kv1.5, the inhibition at 1 µM came out at 9%.
Still for that read-out and setting: in the case of `COc1ccc(CCN2C(=O)N(N)CC2c2ccc(OC)cc2)cc1` (stereo not drawn) [Compound 175, 1-amino-4-(4-methoxyphenyl)-3-[2-(4-methoxyphenyl)ethyl]imidazolidin-2-one] it was 7%.
“tert-butyl [2-({4-(4-tert-butylphenyl)-3-[2-(4-methoxyphenyl)ethyl]-2-oxoimidazolidin-1-yl}amino)-2-oxoethyl]methylcarbamate [Compound 109]”: the “Kv1.5% inhibition @ 1.0 μM” value at Kv1.5 was determined as 71%. The IC50 in the data set on L-type calcium channels is 4.6 µM.
